The subject of test [1] is T-cells (TCR binding of antigen specific tetramers). Nature of the test: Tetramer staining of T-cells. The test is classed as cell-based, human. The following applies: T-cells expanded with 100 μM.
In the next test the test system is ZAP70. Briefly: TCR signaling, pZAP70 western blot in CD3/CD28 activated T-cells. The test is classed as cell-based, human. The following applies: CD3/CD28 bead activation 0-4 h, pZAP70 normalized to ZAP70. The method, then:
Purified T-cells were plated in 6-well plates (2.5×10^6 cells/well, 2.5 mL T-cell medium) and were activated with CD3/CD28 beads (20 μL beads/well, Miltenyi Biotec, San Diego, Calif.) at 37 ° C. for 0-4 h. At the indicated time, samples were then harvested, washed in PBS, lysed with RIPA buffer (Thermo Scientific, containing DNAse and protease/phosphatase inhibitors), and snap frozen on dry ice followed by storage at −80 ° C. Cell lysates (˜3 μg/sample determined by BCA assay) were run on SDS-PAGE and examined by western blot on nitrocellulose membranes with anti-pZAP70 antibody (Cell Signaling Technologies). Briefly, blots were blocked for 1 h at room temperature in 5% milk in TBST (TBST from Cell Signling Technologies), rinsed with TBST and then incubated with primary antibody (anti-pZAP70 1:1000 in 5% BSA in TBST) at 4 ° C. overnight. Blots were washed 3× with TBST and probed with HRP-conjugated secondary antibodies for 1 hr at RT (1:2000 in 5% non-fat milk in TBST) followed by washing (3×TBST) and detection using Cell Signaling Elite ECL as per manufacturer instructions. Blots were scanned using an Amersham™ 600 imager (GE Healthcare). Once imaged, blots could be stripped and reprobed for additional markers using other primary antibodies. […]
Background: A western blot detects proteins with antibodies after separation by electrophoresis.

Another test concerns Galectin-3. Nature of the test: Activated T-cell expression of Galectin-3 (FACS). The test is classed as cell-based, human. The following applies: CD3/CD28 activated T-cells, overnight. How it is done: Purified T-cells were plated in 12-well plates (10^6 cells/well, 1-2 mL T-cell medium) and were activated with CD3/CD28 beads (4 μL beads/2 mL media, Miltenyi Biotec). Cells were incubated at 37° C. overnight and were then analyzed for Galectin-3 expression after fixation and permeabilization followed by FACS analysis.

Another test deals with regulatory T-cells. Briefly: Regulatory T-cell and FOXp3 analysis in T-cell cultures (FACS). The following applies: T-cell culture. The test is classed as cell-based, human. The method, then: Regulatory T-cells in cultures were identified using the Human Regulatory T-cell Cocktail (BD Pharmingen™) and analyzed using FACS. Briefly, cells were washed into BD stain buffer (BSA) with human Fc block (EMD Millipore) and incubated on ice for 30 min. Cells were then stained with fluorescently labeled Human Regulatory T-cell Cocktail (BD Pharmingen™, 1:100 in BD stain buffer (BSA)) or with appropriate isotype controls (ice, dark, 40 min). Cells were then washed twice in BD stain buffer (BSA) and analyzed on an LSRII flow cytometer. Regulatory T-cells were identified as CD4+, CD25+ and CD127 LOW.
T-cells were prepared in the same manner as for intracellular staining as above, where they were fixed and permeabilized and stained with an anti-FOXp3 antibody (BD Biosciences) and analyzed by FACS. In brief, after incubation in BD stain buffer (FBS) with Human Fc block (Miltenyi Biotec) on ice for 30 min as described previously, cells were stained with anti-CD4 antibody for 20 min in the dark (RT). An equal volume of BD stain buffer (FBS) was added and samples were spun and washed once in BD stain buffer (FBS) followed by resuspension in cold BD Cytofix™ fixation buffer for 30 min at RT. Cells were pelleted washed twice in BD stain buffer (FBS), resuspended, and incubated in BD Perm/Wash™ buffer at RT for 30 min. […]

A further test relates to 4T1 cells. Nature of the test: 4T1 mouse tumor study, tumor infiltrating immune cells. The test is classed as in vivo, balb/c mice. The settings on record: 4T1 tumors, 20 mM in drinking water. The method, then: To evaluate the effect of 2FF treatment on tumor infiltrating immune cells balb/c mice were implanted with 4T1 cells (2×10^4 injected sc.) and on the same day started on 20 mM 2FF drinking water. On day 19 (when tumors were approximately ˜250-300 mm^3) or day 28 (when tumors were ˜800-1000 mm^3) tumors were removed, finely minced with a razor blade and suspend in 5 mL cold disassociation buffer (DMEM (high glucose) media, 5% FBS, 1 M HEPES, 2 mg/mL collagenase D (Roche), 0.1 mg/mL DNAse I (50 mg/mL stock in 20 mM Tris-HCL (ph7.5), 1 mM MgCl2, 50% glycerol) and transferred to a Miltenyi C-tube. GentleMACS was run on each tube and the tubes incubated at 37° C. for 40 minutes with continuous rotation. GentleMACS was then run twice and the tubes quickly spun down to collect the tumor in the bottom of the tube. The tube contents was then passed through a 70 μm mesh filter into a 50 mL falcon tube using the rubber stopper of a syringe to gently dissociate the tissue. The filter was washed with 5 mL of cold enzyme inhibitor buffer (DMEM (high glucose), 0.25 M EDTA) and the tube spun down, supernatant discarded and the samples re-suspend in PBS. Cells were then stained with eFluor®506 viability dye (eBioscience) following the manufactures instructions. Cells were washed twice in FACS staining buffer (0.5% FBS, 0.05% NaN3) and immune phenotyped with three different panels of antibodies, each containing an antibody against CD45 to identify immune cells. The cells phenotyped for dendritic cell antigens were stained with the desired antiboides for 30 minutes in the dark on ice, washed twice in staining buffer and resuspended in 1:4 PBS:fixation buffer (Biolgend) and stored at 4° C. overnight. The following day cells were washed in FACS stain buffer and analyzed on the LSRII flow cytometer. The cells phenotyped for T regulatory cells were first stained with the desired antibodies against cell surface antigens for 30 minutes in the dark on ice. […]

The subject of another test is CMV reactive human PMBCs. Briefly: In vitro 2FF and anti-PD1 antibody combination in human PBMCs (IFNγ, IL12p70). The following applies: T-cells matured with 100-200 μM 2FF, co-culture with DCs, 5 μg/mL CMV antigen.

Description for CMV reactive human PMBCs: CMV reactive human PMBCs from a CMV positive donor (Astarte™ Biologics) were thawed, plated into a 6-well plate and cultured overnight in DC media (30% DMEM 70% X-vivo+2 mM glutamax+10% ATB serum+1% PS). The following day the supernatant was collected to isolate T-cells and the adhering cells were washed in media and then replenished with 2 mL media supplemented with IL4 (100 ng/μL) and GMCSF (200 ng/μL) per well to differentiate and proliferate the adhering monocytes into DCs. The plate was incubated for 4-5 days and then cells were moved into a T25 flask. Each time the cells were passaged (every 2-3 days) new cytokines were given. The T-cells in the supernatant were isolated using StemSep human T-cell enrichment kit (Stemcell technologies). The T-cells were then resuspended in T-cell media (RPMI+10% Fetal calf serum, 1% PS) and spilt into two T25 flasks (with or without 100-200 μM 2FF). CD3CD28 antibody coated beads (Miltenyi Biotec) (20 μL/flask) were added to activate the T-cells. After 24 h IL2 was added (100 ng/μL). Each time the cells were passaged new IL2 and 2FF were added. […]
IFNγ and IL12p70 in the supernatants from 5 day co-cultures were measured using a Lumenix assay and the concentration of each cytokine was calculated using an internal standard curve.

Turning to `C[C@@H]1OC(O)[C@@H](F)[C@H](O)[C@@H]1O` (stereo partly drawn) [2-deoxy-2-fluoro-L-fucose], in test [1], the “EBV-specific tetramer binding to treated T-cells vs control cells (flow cytometry)” value is listed as “increase in EBV-specific tetramer binding” and the “tetramer binding with other antigens (flu, CMV) to treated T-cells vs control cells” value was “slight increases”. Further, the “Zap70 phosphorylation in treated T-cells compared to naive cells” value in the test on ZAP70 was “significantly more phosphorylated and remains phosphorylated for a longer period of time”. Also, in the test with Galectin-3, the “galectin-3 levels in T-cells” value was “reduction in galectin-3 levels”. Further, in the test on regulatory T-cells (CD4+, CD25+, CD127 LOW), the “regulatory T-cell populations (percent of total cells)” value was “decrease in regulatory T-cell populations”. Also, the “expression of FOXp3+ in treated T-cells” value in the test on regulatory T-cells (gated on CD4+) was “decreased expression of FOXp3+”. Further, in the test with 4T1 cells (day 19 after implantation), the “T regulatory cells in tumor” value was “significantly decreased T regulatory cells” and the “dendritic cells in tumor” value is recorded as “increased dendritic cells which are more activated”. Besides, the “memory and effector T cells in tumor” value in the test with 4T1 cells (day 28 after implantation) was “increased memory and effector T cells”. In addition, the “antigen specific T cell response (IFNγ, IL12p70) of 2FF matured T-cells vs control cell” value in the test on CMV reactive human PMBCs was “elevated antigen specific T cell response”.

For the origin of these results see patent US20180353524A1, “CANCER TREATMENT USING 2-DEOXY-2-FLUORO-L-FUCOSE IN COMBINATION WITH A CHECKPOINT INHIBITOR” (SEATTLE GENETICS, INC., priority 2015, published 2018).
